# Test results published in patent US10722496B2, “2-iminobiotin for use in the treatment of brain cell injury” (Neurophyxia B.V., priority 2015, dated 2020).
# Key:
# iNOS and nNOS = conditions: Tataranno et al., 2015; cited from earlier work
# IMR-32 cell cultures [1] = experiment: LDH assay after hypoxia under mild hypothermia; assay type: cell-based, human; conditions: 30 ng/ml 2-IB post-hypoxic, 25 hours mild hypothermia (33.5° C.)
# Method: (§1) In-vitro hypoxia was induced for 7 hours using IMR-32 cell cultures. After the hypoxic insult, cultures were subjected to 25 hours of mild hypothermia (33.5° C.) and were incubated with or without 2-IB (10, 30, 50, 100 and 300 ng/ml). Cell morphology was evaluated by brightfield microscopy and cell damage was analyzed by LDH assays. Production of reactive oxygen species (ROS) was measured using fluorometric assays. Western blotting for PARP and phosphorylated as well as unphosphorylated akt and erkl/2 was performed.
# IMR-32 cells [2] = experiment: Reactive oxygen species (ROS) measurement, H2DCFDA; assay type: cell-based, human
# Method: (§2) In vitro hypoxia was induced in the cell cultures by using our recently described system with minor modifications (Huang et al., 2013b; Weber et al., 2015; Zitta et al., 2010). Enzyme stock solutions (100×) of catalase and glucose oxidase (both from Sigma-Aldrich) were prepared in cell culture medium (DMEM/F12, 1% FCS; final concentration: 120 U/ml and 2 U/ml respectively; Sigma-Aldrich) leading to a decrease of partial pressure of oxygen (pO2) below 10 mmHg within 5 minutes. Hypoxic conditions were confirmed by using a tissue oxygen pressure monitor (LICOX® CMP Oxygen Catheter; Integra, Plainsboro, USA). After 7 hours of hypoxia, the cells were washed twice with PBS (PAA) and fresh normoxic medium supplemented with solvent (citrate buffer 1%) or 2-IB (10, 30, 50, 100 and 300 ng/mL) was added to the cells. Investigations of cell damage, metabolic activity, ROS, hydrogen peroxide, nitrite/nitrate production, erkl/2, akt and stat5 phosphorylation as well as cell stress protein expression were performed with cell culture media or cell protein (FIG. 1).
# For reactive oxygen species (ROS) measurements, 4×10^4 cells were seeded per well and cultured for 3 days in black walled 96-well plates (Greiner Bio-One, Frickenhausen, Germany). After hypoxia, cells were washed with pre-warmed PBS and cultured in a phenol red-free DMEM/F12 medium (Gibco®-invitrogen, NY, USA) with 1% fetal calf serum (PAA) for 17 hours, supplemented with solvent (citrate 1%) or 2-IB (10, 30, 50, 100, 300 ng/ml). Intracellular ROS were measured by adding 2′7′-dichlorodihydrofluorescein diacetate (H2DCFDA, Sigma-Aldrich) to a final concentration of 10 μM which is oxidized to fluorescent dichlorofluorescein (DCF) by intracellular ROS. DCF-loaded cells were kept in the dark at 37° C. and fluorescence was evaluated at an excitation wavelength of 485 nm and emission wavelength of 535 nm using an ELISA reader (Genios F L; Tecan, Crailsheim, Austria). Fluorescence data were acquired at time points 0 (T0) and 30 minutes (T30) and results were calculated as the increment of fluorescence (%) over time [(T30-T0)/T0×100]. Hydrogen peroxide was measured in the culture medium with a Quanti-Chrom™ Peroxide Assay Kit (Bio-Assay Systems, Hayward, USA), which utilizes the chromogenic Fe3+-xylenol orange reaction, in which a purple complex is formed when Fe2+ provided in the reagent is oxidized to Fe3+ by the hydrogen peroxide present in the sample. Briefly, 100 μl of detection reagent were added to 20 μl of culture medium and measurements were performed based on the manufacturer's protocol. Absorbance of the colorimetric samples and standards was measured at 620 nm using an ELISA reader (Tecan, Crailsheim, Germany).
# IMR-32 cell cultures [3] = experiment: ROS fluorometric assay after hypoxia under mild hypothermia; assay type: cell-based, human
# Method: as §1
# stat5 = experiment: Western blotting, stat5 phosphorylation; assay type: cell-based, human; conditions: 30 ng/ml 2-IB
# Method: as §2, with “Investigations of cell damage, metabolic activity, ROS, hydrogen peroxide, nitrite/nitrate production, erkl/2, akt and stat5 phosphorylation as well as cell stress protein expression were performed with cell culture media or cell protein (FIG. 1).” left out
# Protein extraction was performed using RIPA buffer containing 150 mM sodium chloride, 1% NP-40, 1% sodium deoxycholate, 0.1% sodium dodecyl sulfate (SDS) and 50 mM Tris-HCl buffer (pH 7.6; all from Sigma-Aldrich) or alternatively M-PER buffer (Mammalian Protein Extraction Reagent; Pierce, Ill., USA). Protein concentrations were determined with Roti®-Quant assays (Carl Roth) and samples were stored at −20° C. until use. […] Images were taken and densitometrically analyzed with the software ImageJ (v1.41o, NIH).
# [4] = Phase I clinical study pharmacokinetics, pulse i.v. infusion in healthy male subjects; assay type: in vivo, human; conditions: for mean AUC 4 hours: 6 pulses of 0.6 mg/kg in a 24-hour period
# Excerpt: The pharmacokinetics of 2-IB have been investigated in a Phase I clinical study in which the safety and tolerability of single and multiple doses of 2-IB pulse i.v. infusion in healthy male subjects were investigated. The study was a randomized, double-blind, placebo-controlled, dose escalation study with 3 groups of 6 healthy male subjects receiving a single i.v. infusion or pulsed i.v. infusions of 2-IB or placebo in 3 periods. Treatments were randomized such that each subject received 2 out of 3 foreseen dose levels of 2-IB and once placebo.
# IMR-32 cells [5] = experiment: Nitrate/nitrite Griess assay in culture media; assay type: cell-based, human; conditions: data not shown
# Method: as §2
# Nitrate and nitrite concentrations were evaluated in culture media using a Griess colorimetric assay kit (Sigma-Aldrich) according to the manufacturer's instructions. Absorbance at 540 nm was measured in samples and standards using an ELISA reader (Tecan, Crailsheim, Germany).
smiles,measurement,setting,value
"N=C1N[C@H]2[C@H](CS[C@H]2CCCCC(=O)O)N1 [2-IB, 2-iminobiotin]",inhibition of NO biosynthesis,iNOS and nNOS,"reversible inhibitor of NO biosynthesis, blocking mainly iNOS and nNOS activity"
same,hypoxia-induced LDH release,IMR-32 cell cultures [1],reduced the hypoxia-induced LDH release even under hypothermia
same,ROS increase (T30-T0)/T0×100,"IMR-32 cells [2]; 30 ng/ml 2-IB, hypoxia",222.00±52.57%
same,ROS increase (T30-T0)/T0×100,"IMR-32 cells [2]; 30 ng/ml 2-IB, normoxia",118.93±20.09%
same,ROS increase (T30-T0)/T0×100,"IMR-32 cells [2]; 50 ng/ml 2-IB, hypoxia",233.38±53.94%
same,ROS increase (T30-T0)/T0×100,"IMR-32 cells [2]; 50 ng/ml 2-IB, normoxia",154.85±30.83%
same,ROS increase (T30-T0)/T0×100,"IMR-32 cells [2]; 100 ng/ml 2-IB, hypoxia",246.71±58.94%
same,ROS increase (T30-T0)/T0×100,"IMR-32 cells [2]; 100 ng/ml 2-IB, normoxia",128.84±21.94%
same,ROS increase (T30-T0)/T0×100,"IMR-32 cells [2]; 300 ng/ml 2-IB, hypoxia",311.57±79.02%
same,ROS increase (T30-T0)/T0×100,"IMR-32 cells [2]; 300 ng/ml 2-IB, normoxia",141.20±25.35%
same,"hypoxia-induced generation of ROS, most efficient concentration",IMR-32 cells [2]; 10-300 ng/ml tested,most efficiently attenuated with 50 ng/ml 2-IB
same,hypoxia-induced ROS production,"IMR-32 cell cultures [3]; 30 ng/ml 2-IB post-hypoxic, mild hypothermia (33.5° C.)",attenuated the hypoxia-induced ROS production under hypothermic conditions
same,hypoxia-induced ROS generation,"IMR-32 cell cultures [3]; higher concentrations of 2-IB (above 30 ng/ml), mild hypothermia",less effective in reducing hypoxia-induced ROS generation
same,phosphorylation of stat5,stat5,did not influence
same,mean AUC 0-4 hours on average,"[4]; 0.6 mg/kg pulses, during the 24-hour dosing period",about 1305 ng·h/mL
same,mean AUC 4 hours,[4]; after the first infusion,1170 ng·h/mL
same,mean AUC 4 hours,[4]; after the last infusion,1441 ng·h/mL
same,nitrate and nitrite concentrations in culture media,IMR-32 cells [5],neither nitrate nor nitrite concentrations were influenced by hypoxia or by 2-IB
